Results taken from ChEMBL document CHEMBL4334529, “Polypropionate Derivatives with Mycobacterium tuberculosis Protein Tyrosine Phosphatase B Inhibitory Activities from the Deep-Sea-Derived Fungus Aspergillus fischeri FS452” (J Nat Prod, 2019).
The source made the active and inactive calls. The calls are words filed in the database; no cut-off is given here.

molecular target: T1, Phosphotyrosine protein phosphatase (Mycobacterium tuberculosis, UniProt A0A045ISB3); experiment: Inhibition of Mycobacterium tuberculosis H37Rv ptpB expressed in Escherichia coli BL21 (DH3) cells using 6,8-difluoromethylumbelliferyl phosphate as substrate incubated for 30 mins by fluorescence based assay; details: not given
T1 sequence (A0A045ISB3 whole entry): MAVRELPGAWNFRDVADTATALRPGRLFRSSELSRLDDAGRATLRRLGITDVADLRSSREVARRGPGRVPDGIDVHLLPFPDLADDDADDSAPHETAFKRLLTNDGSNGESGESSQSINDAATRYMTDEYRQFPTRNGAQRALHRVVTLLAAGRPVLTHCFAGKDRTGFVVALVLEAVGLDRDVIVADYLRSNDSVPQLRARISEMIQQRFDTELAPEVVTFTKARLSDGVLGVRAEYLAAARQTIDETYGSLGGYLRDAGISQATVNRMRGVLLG

Compound	IC50
CC1(C)CC[C@]2(C(=O)O)CC[C@]3(C)C(=CC[C@@H]4[C@@]5(C)CC[C@H](O)C(C)(C)[C@@H]5CC[C@]43C)[C@@H]2C1 [OLEANOLIC_ACID]	14 µM

same assay, conditions: read-out: IC50

Compound	IC50
CC[C@H](C)C[C@H](C)C[C@H](CO)C[C@@H](C)/C=C(C)/C=C(C)\C=C\C=C\C(=O)N1CCCC(O)C1=O (some centres not stated)	> 50 µM
CC[C@H](C)C[C@H](C)C[C@@H]1CO[C@@H](/C(C)=C/C(=C\C=C\CC(=O)O)C(=O)O)[C@H](C)C1	5.1 µM
CC[C@H](COC(C)=O)C[C@H](C)C[C@H](C)C[C@@H](C)/C=C(C)/C=C(/C=C/C=C/C(=O)O)C(=O)O	4 µM
CC[C@H](C)C[C@H](C)C[C@@H]1CO[C@@H](\C(C)=C/C(=C/C=C/CC(=O)O)C(=O)O)[C@H](C)C1	12 µM
CC[C@H](C)C[C@H](C)C[C@H](CO)C[C@@H](C)/C=C(C)/C=C(C)/C=C/C=C/C(=O)N1CCCC(O)C1=O (some centres not stated)	11 µM
C/C(=C\[C@H](C)C[C@@H](C)C[C@@H](C)C[C@@H](C)[C@@H](C)O)C(=O)NCCC(=O)O	> 50 µM

molecular target: T1, Phosphotyrosine protein phosphatase; experiment: Non-competitive inhibition of Mycobacterium tuberculosis H37Rv ptpB expressed in Escherichia coli BL21 (DH3) cells using p-nitrophenyl phosphate as substrate incubated for 30 mins by Lineweaver-Burk blot analysis; details: not given

Compound	Ki
CC[C@H](C)C[C@H](C)C[C@@H]1CO[C@@H](/C(C)=C/C(=C\C=C\CC(=O)O)C(=O)O)[C@H](C)C1	8.9 µM
CC[C@H](COC(C)=O)C[C@H](C)C[C@H](C)C[C@@H](C)/C=C(C)/C=C(/C=C/C=C/C(=O)O)C(=O)O	5.2 µM
CC[C@H](C)C[C@H](C)C[C@@H]1CO[C@@H](\C(C)=C/C(=C/C=C/CC(=O)O)C(=O)O)[C@H](C)C1	7 µM
CC[C@H](C)C[C@H](C)C[C@H](CO)C[C@@H](C)/C=C(C)/C=C(C)/C=C/C=C/C(=O)N1CCCC(O)C1=O (some centres not stated)	16 µM

system: Candida albicans; experiment: Antifungal activity against Candida albicans; format: functional, organism-based; details: not given

Compound	Activity
CC[C@H](C)C[C@H](C)C[C@H](CO)C[C@@H](C)/C=C(C)/C=C(C)\C=C\C=C\C(=O)N1CCCC(O)C1=O (some centres not stated)	inactive
CC[C@H](C)C[C@H](C)C[C@@H]1CO[C@@H](/C(C)=C/C(=C\C=C\CC(=O)O)C(=O)O)[C@H](C)C1	inactive
CC[C@H](COC(C)=O)C[C@H](C)C[C@H](C)C[C@@H](C)/C=C(C)/C=C(/C=C/C=C/C(=O)O)C(=O)O	inactive
CC[C@H](C)C[C@H](C)C[C@@H]1CO[C@@H](\C(C)=C/C(=C/C=C/CC(=O)O)C(=O)O)[C@H](C)C1	inactive
CC[C@H](C)C[C@H](C)C[C@H](CO)C[C@@H](C)/C=C(C)/C=C(C)/C=C/C=C/C(=O)N1CCCC(O)C1=O (some centres not stated)	inactive
C/C(=C\[C@H](C)C[C@@H](C)C[C@@H](C)C[C@@H](C)[C@@H](C)O)C(=O)NCCC(=O)O	inactive
